Measured values published in ChEMBL document CHEMBL4342417, “Design, synthesis and evaluation of novel phenothiazine derivatives as inhibitors of breast cancer stem cells” (Eur J Med Chem, 2019).

System: SK-BR-3
Test: Potency index, ratio of IC50 of TFP to IC50 of compound for antiproliferative activity against human SKBR3 cells assessed as reduction in cell viability incubated for 2 days by MTT assay
Type: functional
Details: not given

SMILES | Ratio IC50
CSc1ccc2c(c1)N(CCCN1CCN(C(=O)CCC(=O)NCCOc3no[n+]([O-])c3S(=O)(=O)c3ccccc3)CC1)c1ccccc1S2 | 4 - 9
O=C(CCC(=O)N1CCN(CCCN2c3ccccc3Sc3ccccc32)CC1)NCCOc1no[n+]([O-])c1S(=O)(=O)c1ccccc1 | 4 - 9
CSc1ccc2c(c1)N(CCCN1CCN(C(=O)CCC(=O)OCCOCCOc3no[n+]([O-])c3S(=O)(=O)c3ccccc3)CC1)c1ccccc1S2 | 4

System: MCF7
Test: Antiproliferative activity against human MCF7 cells assessed as reduction in cell viability incubated for 2 days by MTT assay
Type: functional, cell-based
Details: MCF7, 48 h

IC50 [µM] | SMILES
12.2 | CSc1ccc2c(c1)N(CCCN1CCN(C(=O)CCC(=O)NCCOc3no[n+]([O-])c3S(=O)(=O)c3ccccc3)CC1)c1ccccc1S2
5.58 | O=C(CCC(=O)N1CCN(CCCN2c3ccccc3Sc3ccccc32)CC1)NCCOc1no[n+]([O-])c1S(=O)(=O)c1ccccc1
11.9 | CSc1ccc2c(c1)N(CCCN1CCN(C(=O)CCC(=O)OCCOCCOc3no[n+]([O-])c3S(=O)(=O)c3ccccc3)CC1)c1ccccc1S2

System: MDA-MB-231
Test: Antiproliferative activity against human MDA-MB-231 cells assessed as reduction in cell viability incubated for 2 days by MTT assay
Type: functional, cell-based
Details: MDA-MB-231, 48 h

IC50 [µM] | SMILES
3.41 | CSc1ccc2c(c1)N(CCCN1CCN(C(=O)CCC(=O)NCCOc3no[n+]([O-])c3S(=O)(=O)c3ccccc3)CC1)c1ccccc1S2
1.43 | O=C(CCC(=O)N1CCN(CCCN2c3ccccc3Sc3ccccc32)CC1)NCCOc1no[n+]([O-])c1S(=O)(=O)c1ccccc1
3.06 | CSc1ccc2c(c1)N(CCCN1CCN(C(=O)CCC(=O)OCCOCCOc3no[n+]([O-])c3S(=O)(=O)c3ccccc3)CC1)c1ccccc1S2

System: SUM-159-PT
Test: Potency index, ratio of IC50 of TFP to IC50 of compound for antiproliferative activity against human SUM159 cells assessed as reduction in cell viability incubated for 2 days by MTT assay
Type: functional
Details: not given

SMILES | Ratio IC50
O=C(CCC(=O)N1CCN(CCCN2c3ccccc3Sc3ccccc32)CC1)NCCOc1no[n+]([O-])c1S(=O)(=O)c1ccccc1 | 4
CSc1ccc2c(c1)N(CCCN1CCN(C(=O)CCC(=O)OCCOCCOc3no[n+]([O-])c3S(=O)(=O)c3ccccc3)CC1)c1ccccc1S2 | 4 - 9

System: SUM-159-PT
Test: Antiproliferative activity against human SUM159 cells assessed as reduction in cell viability incubated for 2 days by MTT assay
Type: functional, cell-based
Details: 48 h

SMILES | IC50 [µM]
CSc1ccc2c(c1)N(CCCN1CCN(C(=O)CCC(=O)NCCOc3no[n+]([O-])c3S(=O)(=O)c3ccccc3)CC1)c1ccccc1S2 | 9.34
O=C(CCC(=O)N1CCN(CCCN2c3ccccc3Sc3ccccc32)CC1)NCCOc1no[n+]([O-])c1S(=O)(=O)c1ccccc1 | 4.17
CSc1ccc2c(c1)N(CCCN1CCN(C(=O)CCC(=O)OCCOCCOc3no[n+]([O-])c3S(=O)(=O)c3ccccc3)CC1)c1ccccc1S2 | 4.31

System: MDA-MB-231
Test: Potency index, ratio of IC50 of TFP to IC50 of compound for antiproliferative activity against human MDA-MB-231 cells assessed as reduction in cell viability incubated for 2 days by MTT assay
Type: functional
Details: not given

SMILES | Ratio IC50
CSc1ccc2c(c1)N(CCCN1CCN(C(=O)CCC(=O)NCCOc3no[n+]([O-])c3S(=O)(=O)c3ccccc3)CC1)c1ccccc1S2 | 4 - 15
O=C(CCC(=O)N1CCN(CCCN2c3ccccc3Sc3ccccc32)CC1)NCCOc1no[n+]([O-])c1S(=O)(=O)c1ccccc1 | 4 - 15
CSc1ccc2c(c1)N(CCCN1CCN(C(=O)CCC(=O)OCCOCCOc3no[n+]([O-])c3S(=O)(=O)c3ccccc3)CC1)c1ccccc1S2 | 7

System: SK-BR-3
Test: Antiproliferative activity against human SKBR3 cells assessed as reduction in cell viability incubated for 2 days by MTT assay
Type: functional, cell-based
Details: SK-BR-3, 48 h

IC50 [µM] | SMILES
2.68 | CSc1ccc2c(c1)N(CCCN1CCN(C(=O)CCC(=O)NCCOc3no[n+]([O-])c3S(=O)(=O)c3ccccc3)CC1)c1ccccc1S2
4.01 | O=C(CCC(=O)N1CCN(CCCN2c3ccccc3Sc3ccccc32)CC1)NCCOc1no[n+]([O-])c1S(=O)(=O)c1ccccc1
3.91 | CSc1ccc2c(c1)N(CCCN1CCN(C(=O)CCC(=O)OCCOCCOc3no[n+]([O-])c3S(=O)(=O)c3ccccc3)CC1)c1ccccc1S2
